Data from ChEMBL document CHEMBL5729415, “Compounds for treatment of PD-L1 diseases” (2022).

What follows are molecules tested against Programmed cell death 1 ligand 1 (Homo sapiens, UniProt Q9NZQ7) (assay: Enzyme-Linked Immunosorbent Assay—ELISA: 96 Well plates were coated with 1 μg/mL of human PD-L1 (obtained from R&D) in PBS overnight at 4′° C. The wells were then blocked with 2% BSA in PBS (W/V) with 0.05% TWEEN-20 for 1 hour at 37′° C. The plates were washed 3 times with PBS/0.05% TWEEN-20 and the compounds were serial diluted (1:5) in dilution medium and added to the ELISA plates. Human PD-1 and biotin 0.3 μg/mL (ACRO Biosystems) were added and incubated for 1 hour at 37° C. then washed 3 times with PBS/0.05% TWEEN-20. A second block was performed with 2% BSA in PBS (WNV)/0.05% TWEEN-20 for 10 min at 37° C. and the plates were washed 3 times with PBS/0.05% TWEEN-20. Streptavidin-HIRP was added for 1 hour at 37° C. then the plates were washed 3 times with PBS/0.05% TWEEN-20. TMB substrate was added and reacted for 20 min at 37° C. A stop solution (2 N aqueous H2SO4) was added.).
Programmed cell death 1 ligand 1, sequence (Q9NZQ7 whole entry): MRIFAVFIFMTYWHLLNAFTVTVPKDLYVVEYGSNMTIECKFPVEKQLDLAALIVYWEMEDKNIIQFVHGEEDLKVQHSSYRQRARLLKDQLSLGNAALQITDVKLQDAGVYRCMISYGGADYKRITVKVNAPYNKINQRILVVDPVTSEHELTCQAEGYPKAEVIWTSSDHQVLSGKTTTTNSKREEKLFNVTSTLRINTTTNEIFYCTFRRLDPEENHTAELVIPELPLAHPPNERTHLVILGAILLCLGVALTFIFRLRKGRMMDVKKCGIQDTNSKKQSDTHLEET

Row | Compound | IC50 [nM]
1 | COc1cc(-c2cccc(-c3cccc(-c4cc(F)c(CN)c(OC)c4)c3C)c2C)cc(F)c1CN | < 1000
2 | COc1cccc(-c2cccc(-c3cc(F)c(CN)c(OC)c3)c2C)c1F | < 1000
3 | COc1cc(-c2cccc(-c3ccc4c(c3F)OCCO4)c2C)cc(F)c1CN | < 1000
4 | COc1cc(-c2cccc(-c3ccc4c(c3)NC(=O)CO4)c2C)cc(F)c1CN | < 1000
5 | COc1cc(-c2cccc(-c3cccc(C)c3)c2C)cc(F)c1CN | < 1000
6 | COc1cccc(-c2cccc(-c3cc(F)c(CN)c(OC)c3)c2C)c1C | < 1000
7 | COc1cc(-c2cccc(-c3ccc4c(c3)OCCO4)c2C)cc(F)c1CN | < 1000
8 | COc1cc(-c2cccc(-c3ccc4nc[nH]c(=O)c4c3)c2C)cc(F)c1CN | < 1000
9 | COc1cccc(-c2cccc(-c3cc(F)c(CN)c(OC)c3)c2C)c1 | < 1000
10 | COc1cc(F)cc(-c2cccc(-c3cc(F)c(CN)c(OC)c3)c2C)c1 | < 1000
11 | COC(=O)c1ccc(-c2cccc(-c3cccc(-c4cc(F)c(CN)c(OC)c4)c3C)c2C)cc1OC | < 1000
12 | Cc1c(-c2ccc(CN)cc2)cccc1-c1cccc(-c2ccc(CN)cc2)c1C | < 1000
13 | COc1cc(-c2cccc(-c3ccc4c(c3C)OCCO4)c2C)cc(F)c1CN | < 1000
14 | COc1ccc(F)c(-c2cccc(-c3cc(F)c(CN)c(OC)c3)c2C)c1F | < 1000
15 | COc1cc(-c2cccc(-c3cccc(-c4cc(F)c(CN)c(OC)c4)c3C)c2C)ccc1CC(N)=O | < 1000
16 | COc1cc(OC)c(F)c(-c2cccc(-c3cc(F)c(CN)c(OC)c3)c2C)c1F | < 1000
17 | COc1cc(-c2cccc(-c3cccc(C)c3F)c2C)cc(F)c1CN | < 1000
18 | COc1cc(-c2cccc(-c3ccc4c(c3)OC(CN)CO4)c2C)cc(F)c1CN (centres undefined) | < 1000
19 | COc1cc(-c2cccc(-c3cccc(-c4ccc(CN)cc4)c3C)c2C)cc(F)c1CN | < 1000
